Source: US20210180023A1, “CARDIAC REPAIR BY REPROGRAMMING OF ADULT CARDIAC FIBROBLASTS INTO CARDIOMYOCYTES” (The Board of Regents of the University of Texas System, priority 2017, published 2021)

Legend:
[1] = tested on: adult tail-tip fibroblasts (TTFs) from αMHC-GFP mice; assay: Human retroviral ORF cDNA library screen for AGHMT-mediated cardiac reprogramming (high-throughput imaging of αMHC-GFP and cTnT); assay type: cell-based, mouse; conditions: individual cDNA expressed together with 5F (AGHMT), 9 days, Z-score ≥2 activator, ≤−2 inhibitor
Excerpt: Isolation of mouse tail-tip fibroblast. For isolation of adult mouse tail-tip fibroblasts, tails were cut from 8-12 weeks old adult wild-type or αMHC-GFP mouse and were minced into […] with razor blades after peeling off the superficial dermis. The minced tails were placed in fibroblast growth medium (DMEM supplemented with 10% FBS and 1% (vol/vol) penicillin/streptomycin). Tail-tip fibroblasts migrated out from the explants within 1 week and were passaged one time before use.
Construction of human retroviral ORFs library. Gateway-compatible Human ORFs pEntry vectors were purchased from Thermo Fisher Scientific. Gateway-compatible retroviral destination vector, pMXs-gw, was a gift from Shinya Yamanaka (Addgene plasmid #18656) (Takahashi, 2006). The inventors transferred each ORF individually into pMXs-gw by performing site-specific LR recombination using Gateway LR Clonase II Enzyme Mix kit (Thermo Fisher Scientific).
(§1) Retroviruses production, cellular reprogramming and treatment. For retroviruses production, Platinum E cells were seeded into culture dishes (1×10^5 cells/cm2) one day before transfection in DMEM supplemented with 10% FBS and 1% penicillin/streptomycin. Cells reached ˜80% confluency on the day of transfection. DNA plasmids were transfected into Platinum E cells using FuGENE 6 transfection reagent. Twenty-four hours after transfection, wild type or αMHC-GFP tail-tip fibroblasts were seeded into culture dishes or plates that were precoated with SureCoat (Cellutron) for one hour at a density of 6×10^4/cm^2. Forty-eight hours after transfection, polybrene was added to viral medium that was filtered through a 0.45-μm filter at a concentration of […]. The mixture replaced the growth medium in the cell culture plate with tail-tip fibroblasts. The viral infection was serially repeated twice. Twenty-four hours after the second infection, the viral medium was replaced with induction medium, composed of DMEM/199 (4:1), 10% conditioned medium obtained from neonatal rat cardiomyocyte culture, 10% FBS, 5% horse serum, 1% penicillin/streptomycin, 1% nonessential amino acids, 1% essential amino acids, 1% B-27, 1% insulin-selenium-transferrin, 1% vitamin mixture, and 1% sodium pyruvate (Invitrogen). Small molecule treatments were used throughout the reprogramming process […] (Sigma).
Immunocytochemistry. For immunocytochemistry, cells were fixed in 4% paraformaldehyde for 15 min and permeabilized with 0.1% Triton-X in room temperature. Cells were washed with PBS for three times followed by blocking with 10% goat serum for 1 hr. Cells then were incubated with mouse monoclonal anti-cardiac Troponin T (cTnT) antibody (Thermo Scientific) at 1:500 dilutions and rabbit anti-GFP antibody (Thermo Scientific) at 1:500 dilutions in 5% Goat serum for 1 hr. After washing with PBS three times, Cells then were incubated with donkey anti-mouse alexa fluor 647 (Invitrogen) at 1:500 and goat anti-rabbit Alexa fluor 488 at 1:500 (Invitrogen).
Identification of activators and inhibitors of cardiac reprogramming in adult fibroblasts. The inventors' previously optimized cardiac reprogramming protocol with five factors (AGHMT, also called 5F) was able to reprogram ˜3% efficiency of adult TTFs to iCMs as measured by activation of a cardiac-specific αMHC-GFP transgene and cardiac troponin T (cTnT) immunostaining (Zhou et al., 2015). To identify additional regulators of cardiac reprogramming, the inventors created a retroviral expression library consisting of 1,052 open reading frame (ORF) cDNAs representing 786 human transcription factor, cytokine, epigenetic regulator and nuclear receptor genes (Table 51). The inventors screened this expression library for activators and inhibitors of cardiac reprogramming by expressing individual cDNAs together with 5F in isolated TTFs from αMHC-GFP mice, as schematized in FIG. 1A. […]

adult αMHC-GFP TTFs = assay: Flow cytometry of αMHC-GFP+ and cTnT+ TTFs after retroviral reprogramming; assay type: cell-based, mouse; conditions: ZNF281 added to 5F (6F), 7 days
Procedure: as §1
Flow Cytometry. For flow Cytometry, cells were trypsinized and fixed with fixation buffer (BD Bioscience) for 15 min on ice. Fixed cells were washed with Perm/Wash buffer (BD Bioscience) for three times. […] Cells were washed with Perm/Wash buffer, and then analyzed using FACS Caliber (BD Sciences) and FlowJo software.
ZNF281 enhances cardiac reprogramming of adult fibroblasts. […] The addition of ZNF281 to 5F increased the expression of GFP and cTnT in αMHC-GFP CFs evaluated by immunocytochemistry after 7 days of reprogramming (FIG. 10A). […]

[2] = tested on: αMHC promoter (αMHC-Luciferase); assay: αMHC-luciferase reporter assay in HEK293 cells; assay type: cell-based
Excerpt: To determine if ZNF281 could directly activate cardiac genes, the inventors examined the ability of ZNF281 to activate a luciferase reporter controlled by the αMHC promoter (αMHC-Luciferase).

Substance: Zinc finger protein 281 [ZNF281]
- cTnT Z-score [1]: 7.0
- αMHC Z-score ([1]; αMHC-GFP): 2.9
- cTnT+ TTFs (adult αMHC-GFP TTFs): ~45%
- αMHC-GFP+ TTFs (adult αMHC-GFP TTFs): ~33%
- αMHC-GFP+/cTnT+ TTFs (adult αMHC-GFP TTFs): ~28%
- activation of αMHC-Luciferase reporter ([2]; ZNF281 alone): ~7 fold
- activation of αMHC-Luciferase reporter ([2]; ZNF281 co-expressed with GATA4): ~15 fold
